Measurements as given in patent US8628961B2, “Small molecule antagonists of phosphatidylinositol-3,4,5-triphosphate (PIP3) and uses thereof” (Tufts University, priority 2010, dated 2014).
Where two headings read alike, the source gives them in different places.

How the values were obtained:
PDK1 PH domain = PDK1 PH domain (Homo sapiens (Human), UniProt O15530); assay: FP PIP3/PDK1 PH domain binding assay; settings: for IC50: 15 nM TMR-conjugated PIP3, 100 nM PDK1 PH domain, 30 min
Source text: In order to identify compounds that disrupt the interaction between PIP3 and PH domains, a high-throughput fluorescence polarization (FP)-binding assay was developed using recombinant 1-123 amino acid N-terminal fragment of human Akt1 (also referred to herein simply as Akt), encompassing the PH domain (PH123 protein), and fluorescent […] PIP3 molecule. The amino acid sequence of human Akt1 is publicly available as, for example, GenBank Accession No. NP_001014432.1 (SEQ ID NO:1), and the corresponding DNA sequence is publicly available as, for example, GenBank Accession No. NM_001014432. Briefly, 5 μM recombinant GST fusion proteins containing 1-123 a.a. N-terminal fragment of human Akt1 (PH 123) or 100 nM 441-551 a.a. region of human PDK1 were incubated with 15 nM TMR-labeled PIP3, PIP2, or PIP5 in buffer containing 50 mM Tris-HCl (pH 7.5), 150 mM NaCl, and 5 mM b-ME for 15 min at room temperature in the dark. FP values were determined using Wallac Victor 3 plate reader. For the primary screen, 50,000 diverse small molecules from Harvard Institute of Chemistry and Cell Biology were screened (iccb.med.harvard.edu). Incubations were carried out for 1 hr. For secondary assays, PIT compounds were added at various concentrations (6.25, 12.5, 25, 50, 100, 150 and 200 μM), followed by a 30 min incubation. The inhibition rates were calculated as inhibition rate=[1−(compound-treated group/control group)]×100%, and IC50 value was determined using Origin6 software (MicroCal, LLC, Northampton, Mass.).

U87MG cells [1] = assay: cells; type: cell-based; settings: for IC50: U87MG cells, 48 hr, ATP assay, read-out: Cell Viability IC50
Method: Based on the critical role of PIP3-dependent […] signaling in the regulation of cell survival, the effect of PIT-1 on the cancer cell viability was tested. Cancer cells were seeded into 96-well plates (white plates for ATP assay; black plates for fluorescent assay; clear plates for MTS assay) at the density of 5-10×10^3 cells per well in 100 μl of the appropriate media. Compounds were added at a series of concentrations and incubated for different times. For the ATP assay, a luminescence-based commercial kit (CellTiter-Glo, Promega, Madison, Wis.) was used. Thirty microliters of cell lysis/ATP detection reagent was added to each well, mixed for 10 min at room temperature, and the luminescence was measured using a Wallac Victor 3 plate reader (Perkin-Elmer, Wellesley, Mass.). For the MTS assay, a CellTiter 96 AQueous Non-Radioactive Cell Proliferation Assay Kit (Promega, Madison, Wis., USA) was used. Twenty microliters of the combined MTS/PMS solution was added into each well, incubated for 4 hr at 37° C., and the absorbance at 490 nm was measured using a Wallac Victor 3 plate reader. For the Sytox cell death assay, measuring loss of plasma membrane integrity, cells were incubated with 1 μM Sytox Green reagent (Molecular Probes, Eugene, Oreg.) for 30 min at 37° C. and the fluorescence intensity was measured using Wallac Victor 3 plate reader with excitation at 485 nm and emission at 545 nm. Next, 5 μl of 20% (v/v) Triton X-100 solution was added to each well and incubated for 1 hr at 37° C., and the signal was measured again. The ratio of values (percentage of dead cells in each well) before and after Triton X-100 treatment was calculated and normalized to the relevant controls not subjected to the cytotoxic stimuli. IC50 values were determined using Origin6 software (MicroCal, LLC, Northampton, Mass.).
To measure induction of cell death by PIT-1 derivatives, U87MG cells were incubated with PITs (1.56-300 μM) for 48 hr. Cell viability was determined using ATP assay.

U87MG cells [2] = assay: Long-term colony formation; type: cell-based, human
[3] = test system: SV40-transformed mouse adult lung fibroblasts; assay: Viability of Akt1-expressing versus Akt1-3 triple knockout fibroblasts; type: cell-based
Source text: Shaughnessy J D (2008) Nature 454:172-3; Weinstein I G (2002) Science 297:63-4. Therefore, the possibility that PIT-1 may cause preferential cell death in the cells containing elevated PIP3 levels was examined. […] Li D M et al. (1998) Proc Natl Acad Sci USA 95:15406-11. […] Neshat M S et al. (2001) Proc Natl Acad Sci USA 98:10314-9.

human cancer cells = assay: Cancer cell migration, transwell migration and wound closure models; type: cell-based; settings: for cancer cell migration: model not specified
Method: Two models of cell migration were used, a transwell migration model and a wound closure model. Migration of cancer and endothelial cells was evaluated using 24-transwell Boyden chamber (Costar, Bedford, Mass.) with a polystyrene membrane (6.5 mm diameter, 10 μm thickness, and 8 μm pore size). Cells were suspended in serum-free media and seeded in the upper compartment of each well (2×10^4 cells/well) in the presence or absence of different compounds at the indicated concentrations. The lower compartment contained 600 μl of serum-free culture media supplemented with growth factors. After an 8-hr incubation at 37° C., cells were fixed and stained with 0.1% crystal violet. Non-migrating cells on the upper surface of the filter were removed, and the stained cells that migrated to the lower side were photographed using a phase-contrast microscope (Nikon, Japan) in five random fields. The cells were lysed with 10% acetic acid, and colorimetric determination was made at 595 nm using Wallac Victor 3 plate reader.
Cancer or endothelial cells were seeded into fibronectin-coated 96-well plates (2×10^4 cells/well). After reaching confluence, cell monolayers were scratched with a pipette tip to obtain a “wound”. The media and dislodged cells were aspirated and replaced by fresh serum-free media in the presence of growth factors, with or without compounds at different concentrations. After an 8-hr incubation at 37° C., cells were photographed using a phase-contrast microscope in five random fields. The width of wounded cell monolayers in images was measured and the inhibition rates of migration were calculated as inhibition rate=[1−(compound-treated group/control group)]×100%, and IC50 value was determined using Origin6 software (MicroCal, LLC, Northampton, Mass.).

[4] = test system: SUM159 cells transfected with VAV2 or WAVE2; assay: Lamellipodia formation and membrane translocation in VAV/WAVE-transfected cells; type: cell-based, human; settings: 100 μM, 2 hr
Source text: Of the PIP3-binding actin-regulating factors, VAV and WAVE family proteins have been identified as important PIP3-interacting proteins regulating actin polymerization, lamellipodia formation, and cell motility in response to growth factor stimulation. Hornstein I et al. (2004) Cell Signal 16:1-11; Oikawa T et al. (2004) Nat Cell Biol 6:420-6. Therefore, the effect of PIT-1 on the cellular localization of GFP fusions of VAV and WAVE proteins was investigated. SUM159 cells transfected with VAV2 or WAVE2 GFP vectors were treated with PIT-1, PIT-2, PIT-1i-1, or PIT-1i-2 (100 μM) for 2 hr. Alternatively, cells were serum starved overnight, treated with these same compounds and then stimulated with PDGF 100 ng/ml for 15 min. Subsequently, actin fibers were stained with TRITC-phalloidin and analyzed using fluorescent microscopy. The numbers of cell ruffles/lamellipodia were counted in five random fields.

Sequence of PDK1 PH domain (O15530 441-551): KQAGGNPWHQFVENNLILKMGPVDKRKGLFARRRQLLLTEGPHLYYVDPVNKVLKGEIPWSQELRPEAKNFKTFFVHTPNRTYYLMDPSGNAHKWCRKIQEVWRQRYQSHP

Compound: O=C(NC(=S)Nc1cc([N+](=O)[O-])cc(Cl)c1O)c1ccccc1 [PIT-1]
- IC50 (PDK1 PH domain): 66.7 ± 3.5 µM
- inhibition of binding of PIP3 to the PH domain of PDK1 (PDK1 PH domain; FIG. 4): inhibited binding of PIP3 to the PH domain of PDK1
- killing of U87MG cells compared with LY294002 (U87MG cells [1]): more pronounced than that by the PI3K inhibitor LY294002
- IC50 (U87MG cells [1]; Homo sapiens, U-87 MG): 39.9 ± 3.2 µM
- long-term colony formation by U87MG cells (U87MG cells [2]): suppressed long-term colony formation
- loss of viability in Akt1-expressing versus Akt1-3 triple knockout fibroblasts [3]: more pronounced (P<0.01)
- growth factor-induced transwell migration (human cancer cells; dose-dependent): substantially inhibited
- cancer cell migration (human cancer cells): much stronger than that of Akt kinase inhibitor VIII

Compound: O=C(NC(=O)c1ccccc1)Nc1cc([N+](=O)[O-])cc(Cl)c1O [PIT-1i-1, reference compound]
- IC50 (PDK1 PH domain): > 200 µM
- IC50 (U87MG cells [1]): > 200 µM
- cancer cell migration (human cancer cells): neither PIT-1i-1 nor PIT-1i-2 was active
- lamellipodia formation and membrane translocation of VAV/WAVE proteins [4]: inactive

Compound: COc1c(Cl)cc([N+](=O)[O-])cc1NC(=S)NC(=O)c1ccccc1 [PIT-1i-2]
- IC50 (PDK1 PH domain): > 200 µM
- IC50 (U87MG cells [1]): > 200 µM
- cancer cell migration (human cancer cells): neither PIT-1i-1 nor PIT-1i-2 was active
- lamellipodia formation and membrane translocation of VAV/WAVE proteins [4]: inactive
